Patent US8030321B2, “Benzofuro- and benzothienopyrimidine modulators of the histamine H4 receptor” (Janssen Pharmaceutica, NV, priority 2006, dated 2011)
Structures can show the parent of a compound that is named as a salt.

target: T1, human histamine H4 receptor (Homo sapiens, UniProt Q9H3N8); test: Binding Assay on Recombinant Human Histamine H4 Receptor; settings: competition binding with 3H-histamine (5 nM), membranes of SK-N-MC or COS7 cells expressing human H4 receptor; Cheng-Prusoff, KD 5 nM; average of results obtained; read-out: Ki
T1 construct: expressed in transfected cells; host or cells: SK-N-MC cells or COS7 cells, transiently transfected; cell membranes used
Procedure, shortened: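 Membranes from SK-N-MC or COS7 cells transiently transfected with human H4 receptor were incubated with ³H-histamine (5-70 nM); nonspecific binding defined with 10,000 nM histamine. Bound radioactivity collected by GF/C filtration and scintillation counting; test compounds assessed by displacement of ³H-ligand binding across concentrations.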

| SMILES | Ki [nM] |
| --- | --- |
| C[C@@H]1CNCCN1c1nc(N)nc2c1oc1ccc(Cl)cc12 [Example 132, (R)-8-Chloro-4-(2-methyl-piperazin-1-yl)-benzo[4,5]furo[3,2-d]pyrimidin-2-ylamine trifluoroacetic acid salt] | 120 |
| C[C@H]1CN(c2nc(N)nc3c2oc2ccc(Cl)cc23)CCN1 [Example 133, (S)-8-Chloro-4-(5-methyl-piperazin-1-yl)-benzo[4,5]furo[3,2-d]pyrimidin-2-ylamine trifluoroacetic acid salt] | 5.7 |
| C[C@@H]1CN(c2nc(N)nc3c2oc2ccc(Cl)cc23)CCN1 [Example 134, (R)-8-Chloro-4-(5-methyl-piperazin-1-yl)-benzo[4,5]furo[3,2-d]pyrimidin-2-ylamine trifluoroacetic acid salt] | 50 |
| CN[C@@H]1CCN(c2nc(N)nc3c2oc2cccc(F)c23)C1 [Example 136, (R)-9-Fluoro-4-(3-methylamino-pyrrolidin-1-yl)-benzo[4,5]furo[3,2-d]pyrimidin-2-ylamine trifluoroacetic acid salt] | 10 |
| Nc1nc(N2CC(N)C2)c2oc3cccc(F)c3c2n1 [Example 138, 4-(3-Amino-azetidin-1-yl)-9-fluoro-benzo[4,5]furo[3,2-d]pyrimidin-2-ylamine trifluoroacetic acid salt] | > 10000 |
| CN1CCN(c2nc(N)nc3c2oc2ccc(C(F)(F)F)cc23)CC1 [Example 139, 4-(4-Methyl-piperazin-1-yl)-8-trifluoromethyl-benzo[4,5]furo[3,2-d]pyrimidin-2-ylamine trifluoroacetic acid salt] | 0.8 |
| CN[C@@H]1CCN(c2nc(N)nc3c2oc2ccc(C(F)(F)F)cc23)C1 [Example 140, (R)-4-(3-Methylamino-pyrrolidin-1-yl)-8-trifluoromethyl-benzo[4,5]furo[3,2-d]pyrimidin-2-ylamine trifluoroacetic acid salt] | 1 |
| Nc1nc(N2CCC[C@H](N)C2)c2oc3ccc(C(F)(F)F)cc3c2n1 [Example 141, (S)-4-(3-Amino-piperidin-1-yl)-8-trifluoromethyl-benzo[4,5]furo[3,2-d]pyrimidin-2-ylamine trifluoroacetic acid salt] | 43 |
| Nc1nc(N2C[C@@H]3C[C@H]2CN3)c2oc3ccc(C(F)(F)F)cc3c2n1 [Example 143, (S,S)-4-(2,5-Diaza-bicyclo[2.2.1]hept-2-yl)-8-trifluoromethyl-benzo[4,5]furo[3,2-d]pyrimidin-2-ylamine citrate salt] | 270 |
| Nc1nc(N2CC(N)C2)c2oc3ccc(C(F)(F)F)cc3c2n1 [Example 144, 4-(3-Amino-azetidin-1-yl)-8-trifluoromethyl-benzo[4,5]furo[3,2-d]pyrimidin-2-ylamine] | > 10000 |
| CN1CCN(c2nc(N)nc3c2oc2ccc(F)c(F)c23)CC1 [Example 145, 8,9-Difluoro-4-(4-methyl-piperazin-1-yl)-benzo[4,5]furo[3,2-d]pyrimidin-2-ylamine trifluoroacetic acid salt] | 160 |
| Nc1nc(N2CCC[C@H](N)C2)c2oc3ccc(F)c(F)c3c2n1 [Example 147, (S)-4-(3-Amino-piperidin-1-yl)-8,9-difluoro-benzo[4,5]furo[3,2-d]pyrimidin-2-ylamine trifluoroacetic acid salt] | > 10000 |
| CN[C@@H]1CCN(c2nc(N)nc3c2oc2ccc(F)c(F)c23)C1 [Example 148, (R)-8,9-Difluoro-4-(3-methylamino-pyrrolidin-1-yl)-benzo[4,5]furo[3,2-d]pyrimidin-2-ylamine trifluoroacetic acid salt] | 39 |
| Nc1nc(N2C[C@@H]3C[C@H]2CN3)c2oc3ccc(F)c(F)c3c2n1 [Example 149, (S,S)-4-(2,5-Diaza-bicyclo[2.2.1]hept-2-yl)-8,9-difluoro-benzo[4,5]furo[3,2-d]pyrimidin-2-ylamine trifluoroacetic acid salt] | > 10000 |
| Nc1nc(N2CC(N)C2)c2oc3ccc(F)c(F)c3c2n1 [Example 150, 4-(3-Amino-azetidin-1-yl)-8,9-difluoro-benzo[4,5]furo[3,2-d]pyrimidin-2-ylamine trifluoroacetic acid salt] | 5380 |
| Nc1nc(N2C[C@@H]3C[C@H]2CN3)c2oc3cccc(Cl)c3c2n1 [Example 155, (S,S)-9-Chloro-4-(2,5-diaza-bicyclo[2.2.1]hept-2-yl)-benzo[4,5]furo[3,2-d]pyrimidin-2-ylamine trifluoroacetic acid salt] | 460 |
| COc1ccc2c(c1)sc1c(N3CCN(C)CC3)nc(N)nc12 [Example 159, 7-Methoxy-4-(4-methyl-piperazin-1-yl)-benzo[4,5]thieno[3,2-d]pyrimidin-2-ylamine trifluoroacetic acid salt] | 180 |
| N[C@H]1CCCN(c2nc(NCCO)nc3c2oc2ccc(Cl)cc23)C1 [Example 161, (S)-2-[4-(3-Amino-piperidin-1-yl)-8-chloro-benzo[4,5]furo[3,2-d]pyrimidin-2-ylamino]-ethanol] | > 10000 |
| NC1CN(c2nc(NCCO)nc3c2oc2ccc(Cl)cc23)C1 [Example 162, 2-[4-(3-Amino-azetidin-1-yl)-8-chloro-benzo[4,5]furo[3,2-d]pyrimidin-2-ylamino]-ethanol] | > 10000 |
| CN1CCN(c2nc(N(C)C)nc3c2oc2ccc(Cl)cc23)CC1 [Example 163, [8-Chloro-4-(4-methyl-piperazin-1-yl)-benzo[4,5]furo[3,2-d]pyrimidin-2-yl]-dimethyl-amine] | 718 |

Second part, the compound after the results:

| Ki [nM] | SMILES |
| --- | --- |
| 21 | CN1CCN(c2nc(N)nc3c2oc2cccc(F)c23)CC1 [Example 135, 9-Fluoro-4-(4-methyl-piperazin-1-yl)-benzo[4,5]furo[3,2-d]pyrimidin-2-ylamine trifluoroacetic acid salt] |
| 150 | Nc1nc(N2CCNCC2)c2oc3cccc(F)c3c2n1 [Example 137, 9-Fluoro-4-piperazin-1-yl-benzo[4,5]furo[3,2-d]pyrimidin-2-ylamine trifluoroacetic acid salt] |
| 13 | Nc1nc(N2CCNCC2)c2oc3ccc(C(F)(F)F)cc3c2n1 [Example 142, 4-piperazin-1-yl-8-trifluoromethyl-benzo[4,5]furo[3,2-d]pyrimidin-2-ylamine trifluoroacetic acid salt] |
| 1280 | Nc1nc(N2CCNCC2)c2oc3ccc(F)c(F)c3c2n1 [Example 146, 8,9-Difluoro-4-piperazin-1-yl-benzo[4,5]furo[3,2-d]pyrimidin-2-ylamine trifluoroacetic acid salt] |
| 74 | CN1CCN(c2nc(N)nc3c2oc2cccc(Cl)c23)CC1 [Example 151, 9-Chloro-4-(4-methyl-piperazin-1-yl)-benzo[4,5]furo[3,2-d]pyrimidin-2-ylamine trifluoroacetic acid salt] |
| 87 | CN[C@@H]1CCN(c2nc(N)nc3c2oc2cccc(Cl)c23)C1 [Example 152, (R)-9-Chloro-4-(3-methylamino-pyrrolidin-1-yl)-benzo[4,5]furo[3,2-d]pyrimidin-2-ylamine trifluoroacetic acid salt] |
| 1030 | Nc1nc(N2CCNCC2)c2oc3cccc(Cl)c3c2n1 [Example 153, 9-Chloro-4-piperazin-1-yl-benzo[4,5]furo[3,2-d]pyrimidin-2-ylamine trifluoroacetic acid salt] |
| > 10000 | Nc1nc(N2CCC[C@H](N)C2)c2oc3cccc(Cl)c3c2n1 [Example 154, (S)-4-(3-Amino-piperidin-1-yl)-9-chloro-benzo[4,5]furo[3,2-d]pyrimidin-2-ylamine trifluoroacetic acid salt] |
| > 10000 | Nc1nc(N2CC(N)C2)c2oc3cccc(Cl)c3c2n1 [Example 156, 4-(3-Amino-azetidin-1-yl)-9-chloro-benzo[4,5]furo[3,2-d]pyrimidin-2-ylamine trifluoroacetic acid salt] |
| > 10000 | OCCNc1nc(N2CCNCC2)c2oc3ccc(Cl)cc3c2n1 [Example 160, 2-(8-Chloro-4-piperazin-1-yl-benzo[4,5]furo[3,2-d]pyrimidin-2-ylamino)-ethanol] |
